Laboratory results: the supplement of paper PMC10331698
± gives the standard deviation of the averaged measurements.

Tests used:
Assay in all cases: level (log10 ratio to DMSO vehicle control); higher = higher biomarker level / cell amount than vehicle control
[1] = compound: O=S(=O)(O)CCC(F)(F)C(F)(F)C(F)(F)C(F)(F)C(F)(F)C(F)(F)F [6:2 Fluorotelomer sulfonic acid]; conditions: in DMSO
Description: (§1)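 BioMAP Diversity Plus panel of 12 human primary cell co-culture systems (3C, 4H, LPS, SAg, BT, BF4T, BE3C, CASM3C, HDF3CGF, KF3CT, MyoF, Mphg). Compounds were added 1 h before stimulation and left for 24 h (MyoF 48 h; BT 72 h for soluble read-outs or 6 d for IgG). Biomarkers were read by ELISA, cytotoxicity by SRB, PBMC viability and proliferation by Alamar Blue. Each well value was divided by the mean of 8 DMSO control wells on the same plate and log10 transformed; duplicate blinded samples were tested at 4 concentrations.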

[2] = compound: O=S(=O)(Cl)C(F)(F)C(F)(F)C(F)(F)C(F)(F)C(F)(F)C(F)(F)C(F)(F)C(F)(F)F [Perfluoro-1-octanesulfonyl chloride]; conditions: in DMSO
Description: as §1

[3] = compound: FC(F)(F)C(F)(F)C(F)(F)CI [Heptafluorobutyl iodide]; conditions: in DMSO
Description: as §1

[4] = compound: O=S(=O)(F)C(F)(F)C(F)(F)C(F)(F)C(F)(F)C(F)(F)C(F)(F)C(F)(F)C(F)(F)F [Perfluorooctanesulfonyl fluoride]; conditions: in DMSO
Description: as §1

[5] = compound: FC(F)(F)C(F)(F)C(F)(F)CC1CO1 [1H,1H-Heptafluorobutyl epoxide]; conditions: in DMSO
Description: as §1

[6] = compound: OCC(F)(F)C(F)(F)C(F)(F)CO [Hexafluoroamylene glycol]; conditions: in DMSO
Description: as §1

[7] = compound: O=S(=O)(O)C(F)(F)C(F)(F)C(F)(F)C(F)(F)C(F)(F)C(F)(F)C(F)(F)C(F)(F)C(F)(F)C(F)(F)F [Sodium perfluorodecanesulfonate]; conditions: in DMSO
Description: as §1

[8] = compound: FC(F)(F)C(F)(F)C(F)(F)C(F)(F)C(F)(F)C(F)(F)C(F)(F)I [1-Iodopentadecafluoroheptane]; conditions: in DMSO
Description: as §1

[9] = compound: FC(F)(F)C(F)(F)C(F)(F)C(F)(F)C(F)(F)C(F)(F)CC1CO1 [3-(Perfluorohexyl)-1,2-epoxypropane]; conditions: in DMSO
Description: as §1

[10] = compound: NC(=O)C(F)(F)C(F)(F)C(F)(F)C(F)(F)C(N)=O [Octafluoroadipamide]; conditions: in DMSO
Description: as §1

[11] = compound: C=CC(=O)OCC(F)(F)C(F)(F)C(F)(F)COC(=O)C=C [1H,1H,5H,5H-Perfluoro-1,5-pentanediol diacrylate]; conditions: 6700 nM; in DMSO
Description: as §1

[12] = compound: FC(F)(F)C(F)(F)CNCC(F)(F)C(F)(F)F [Bis(1H,1H-perfluoropropyl)amine]; conditions: in DMSO
Description: as §1

[13] = compound: NC(=O)C(F)(F)C(F)(F)C(F)(F)C(F)F; conditions: in DMSO
Description: as §1

[14] = compound: O=C(O)C=CC(F)(C(F)(F)F)C(F)(F)F [3-(Perfluoroisopropyl)-2-propenoic acid]; conditions: in DMSO
Description: as §1

[15] = compound: NC(=O)C(F)(F)C(F)(F)C(F)(F)C(F)(F)F [Nonafluoropentanamide]; conditions: in DMSO
Description: as §1

[16] = compound: O=C(O)C(F)(F)C(F)(F)C(F)(F)C(F)(F)C(F)(F)C(F)(F)C(F)(F)C(F)(F)C(F)(F)C(F)F [11-H-Perfluoroundecanoic acid]; conditions: in DMSO
Description: as §1

[17] = compound: NS(=O)(=O)C(F)(F)C(F)(F)C(F)(F)C(F)(F)C(F)(F)C(F)(F)F [Perfluorohexanesulfonamide]; conditions: in DMSO
Description: as §1

[18] = compound: COC(=O)C(F)(F)C(F)(F)OC(F)(C(F)(F)F)C(F)(F)OC(F)=C(F)F [Methyl perfluoro(3-(1-ethenyloxypropan-2-yloxy)propanoate)]; conditions: in DMSO
Description: as §1

[19] = compound: C=C(C)C(=O)OCCC(F)(F)C(F)(F)C(F)(F)C(F)(F)C(F)(F)C(F)(F)F [6:2 Fluorotelomer methacrylate]; conditions: in DMSO
Description: as §1

lMphg:SRB-Mphg
level (log10) ([1]; 6700 nM): 0.0065 ± 0.0064
level (log10) ([1]; 20000 nM): 0.0135 ± 0.0078
level (log10) ([1]; 60000 nM): 0.0025 ± 0.036
level (log10) ([2]; 6700 nM): 0.0025 ± 0.013
level (log10) ([2]; 20000 nM): 0.004 ± 0.016
level (log10) ([2]; 60000 nM): -0.0185 ± 0.025
level (log10) ([3]; 6700 nM): -0.0065 ± 0.005
level (log10) ([3]; 20000 nM): 0.0055 ± 0.0078
level (log10) ([3]; 60000 nM): 0.007 ± 0.031
level (log10) ([4]; 6700 nM): 0.0065 ± 0.005
level (log10) ([4]; 20000 nM): -0.004
level (log10) ([4]; 60000 nM): 0.004 ± 0.0042
level (log10) ([5]; 6700 nM): 0.012 ± 0.0085
level (log10) ([5]; 20000 nM): -0.0005 ± 0.021
level (log10) ([5]; 60000 nM): -0.0085 ± 0.005
level (log10) ([6]; 6700 nM): 0.0005 ± 0.0092
level (log10) ([6]; 20000 nM): 0.0035 ± 0.015
level (log10) ([6]; 60000 nM): 0.007 ± 0.013
level (log10) ([7]; 1500 nM): -0.067 ± 0.12
level (log10) ([7]; 4400 nM): -0.0945 ± 0.083
level (log10) ([7]; 13000 nM): -0.119 ± 0.053
level (log10) ([7]; 40000 nM): -0.057 ± 0.13
level (log10) ([8]; 6700 nM): 0.005 ± 0.018
level (log10) ([8]; 20000 nM): 0.0125 ± 0.011
level (log10) ([9]; 6700 nM): 0.0095 ± 0.0092
level (log10) ([9]; 20000 nM): 0.0035 ± 0.012
level (log10) ([9]; 60000 nM): 0.013 ± 0.0014
level (log10) ([10]; 6700 nM): -0.02 ± 0.027
level (log10) ([10]; 20000 nM): -0.0265 ± 0.018
level (log10) ([10]; 60000 nM): 0.003 ± 0.018
level (log10) [11]: 0.0135 ± 0.00071
level (log10) ([12]; 6700 nM): -0.025 ± 0.03
level (log10) ([12]; 20000 nM): -0.058 ± 0.023
level (log10) ([12]; 60000 nM): -0.0025 ± 0.037
level (log10) ([13]; 6700 nM): 0.0005 ± 0.013
level (log10) ([13]; 20000 nM): -0.0045 ± 0.015
level (log10) ([13]; 60000 nM): 0.013 ± 0.027
level (log10) ([14]; 6700 nM): 0.0005 ± 0.013
level (log10) ([14]; 20000 nM): 0.004 ± 0.0085
level (log10) ([14]; 60000 nM): 0.0075 ± 0.015
level (log10) ([15]; 6700 nM): 0.005 ± 0.0085
level (log10) ([15]; 20000 nM): -0.005 ± 0.014
level (log10) ([15]; 60000 nM): -0.012 ± 0.017
level (log10) ([16]; 6700 nM): 0.008 ± 0.011
level (log10) ([16]; 20000 nM): -0.0095 ± 0.03
level (log10) ([17]; 6700 nM): 0.002 ± 0.0028
level (log10) ([17]; 20000 nM): -0.021 ± 0.0057
level (log10) ([17]; 60000 nM): -0.0625 ± 0.013
level (log10) ([18]; 6700 nM): -0.011 ± 0.0057
level (log10) ([18]; 20000 nM): 0.006 ± 0.017
level (log10) ([19]; 6700 nM): 0.01 ± 0.011
level (log10) ([19]; 20000 nM): 0.0095 ± 0.0092
level (log10) ([19]; 60000 nM): 0.0105 ± 0.0021

BE3C:CXCL9/MIG
level (log10) ([1]; 6700 nM): -0.005 ± 0.0014
level (log10) ([1]; 20000 nM): -0.004 ± 0.0042
level (log10) ([1]; 60000 nM): 0.0015 ± 0.011
level (log10) ([2]; 6700 nM): -0.0025 ± 0.00071
level (log10) ([2]; 20000 nM): -0.004 ± 0.0042
level (log10) ([2]; 60000 nM): -0.724 ± 0.11
level (log10) ([3]; 6700 nM): -0.002 ± 0.0099
level (log10) ([3]; 20000 nM): -0.002 ± 0.0014
level (log10) ([3]; 60000 nM): 0.0065 ± 0.018
level (log10) ([4]; 6700 nM): 0.0035 ± 0.005
level (log10) ([4]; 20000 nM): -0.0025 ± 0.0064
level (log10) ([4]; 60000 nM): 0.007 ± 0.017
level (log10) ([5]; 6700 nM): -0.0125 ± 0.0064
level (log10) ([5]; 20000 nM): 0 ± 0.0028
level (log10) ([5]; 60000 nM): -0.0075 ± 0.0064
level (log10) ([6]; 6700 nM): -0.003 ± 0.0085
level (log10) ([6]; 20000 nM): -0.0055 ± 0.0035
level (log10) ([6]; 60000 nM): 0.0025 ± 0.011
level (log10) ([7]; 1500 nM): 0.016 ± 0.0042
level (log10) ([7]; 4400 nM): 0.008 ± 0.0085
level (log10) ([7]; 13000 nM): 0.014 ± 0.0085
level (log10) ([7]; 40000 nM): 0.0005 ± 0.0092
level (log10) ([8]; 6700 nM): -0.0035 ± 0.021
level (log10) ([8]; 20000 nM): 0.003 ± 0.013
level (log10) ([9]; 6700 nM): 0.0095 ± 0.018
level (log10) ([9]; 20000 nM): 0.0185 ± 0.016
level (log10) ([9]; 60000 nM): 0.023 ± 0.0057
level (log10) ([10]; 6700 nM): -0.008
level (log10) ([10]; 20000 nM): -0.007 ± 0.0057
level (log10) ([10]; 60000 nM): 0.006 ± 0.0071
level (log10) [11]: 0.0095 ± 0.0021
level (log10) ([12]; 6700 nM): -0.0065 ± 0.0035
level (log10) ([12]; 20000 nM): -0.0055 ± 0.00071
level (log10) ([12]; 60000 nM): 0.005 ± 0.021
level (log10) ([13]; 6700 nM): 0.012 ± 0.024
level (log10) ([13]; 20000 nM): 0.009 ± 0.0071
level (log10) ([13]; 60000 nM): 0.006 ± 0.0085
level (log10) ([14]; 6700 nM): 0.0135 ± 0.015
level (log10) ([14]; 20000 nM): 0.016 ± 0.017
level (log10) ([14]; 60000 nM): 0.0235 ± 0.013
level (log10) ([15]; 6700 nM): 0.015 ± 0.0071
level (log10) ([15]; 20000 nM): -0.001 ± 0.014
level (log10) ([15]; 60000 nM): 0.014
level (log10) ([16]; 6700 nM): -0.004 ± 0.0057
level (log10) ([16]; 20000 nM): -0.905 ± 0.047
level (log10) ([17]; 6700 nM): -0.0025 ± 0.0064
level (log10) ([17]; 20000 nM): -0.0005 ± 0.0078
level (log10) ([17]; 60000 nM): -0.0065 ± 0.0078
level (log10) ([18]; 6700 nM): -0.0035 ± 0.0035
level (log10) ([18]; 20000 nM): -0.019 ± 0.0099
level (log10) ([19]; 6700 nM): 0.0055 ± 0.028
level (log10) ([19]; 20000 nM): 0.008 ± 0.035
level (log10) ([19]; 60000 nM): 0.015 ± 0.045
